As usually defined, the EC50 is the concentration needed to bring the measured effect to its halfway point. By IC50 is commonly meant the concentration that inhibits the measured activity by half.

Where two headings read alike, the source gives them in different places. Positions of bridges follow the written chain, without caps; N, C: chain ends. Non-standard residues stand in square brackets, D forms with d. Residues, ends and D or L forms follow the SMILES beside them. *: point of attachment. Biotin = O=C1N[C@H]2[C@H](CS[C@H]2CCCCC(=O)*)N1; Lys(N3) = [N-]=[N+]=NCCCC[C@H](N)C(=O)O

For one test, the target named is T1, C1q (Homo sapiens, UniProt P02745+P02746+P02747).
T1 construct: tissue Complement Technology, Inc; host or cells: normal human serum (pooled), 1% in RPMI medium
T1 sequence (P02745 23-245): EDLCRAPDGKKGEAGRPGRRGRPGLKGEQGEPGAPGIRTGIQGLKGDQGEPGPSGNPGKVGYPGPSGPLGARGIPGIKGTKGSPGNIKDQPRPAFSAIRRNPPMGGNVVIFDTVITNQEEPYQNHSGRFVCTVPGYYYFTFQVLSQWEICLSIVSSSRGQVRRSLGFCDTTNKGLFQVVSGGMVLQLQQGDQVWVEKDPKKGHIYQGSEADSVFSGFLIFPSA
T1 sequence (P02746 28-253): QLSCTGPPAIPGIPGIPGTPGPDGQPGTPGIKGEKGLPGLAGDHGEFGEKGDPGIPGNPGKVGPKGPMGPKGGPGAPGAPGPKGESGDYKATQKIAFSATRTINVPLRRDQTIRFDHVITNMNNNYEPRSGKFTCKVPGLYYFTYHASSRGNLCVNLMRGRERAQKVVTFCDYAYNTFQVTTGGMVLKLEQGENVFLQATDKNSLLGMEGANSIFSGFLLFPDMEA
T1 sequence (P02747 29-245): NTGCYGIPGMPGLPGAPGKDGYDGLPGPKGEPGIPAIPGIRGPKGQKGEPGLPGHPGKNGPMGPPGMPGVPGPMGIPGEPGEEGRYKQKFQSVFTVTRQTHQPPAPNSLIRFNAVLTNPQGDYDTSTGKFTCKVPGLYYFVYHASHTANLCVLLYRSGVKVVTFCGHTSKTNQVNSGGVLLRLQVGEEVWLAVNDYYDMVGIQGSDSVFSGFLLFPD
T1 sequence (P00736 18-705 partner): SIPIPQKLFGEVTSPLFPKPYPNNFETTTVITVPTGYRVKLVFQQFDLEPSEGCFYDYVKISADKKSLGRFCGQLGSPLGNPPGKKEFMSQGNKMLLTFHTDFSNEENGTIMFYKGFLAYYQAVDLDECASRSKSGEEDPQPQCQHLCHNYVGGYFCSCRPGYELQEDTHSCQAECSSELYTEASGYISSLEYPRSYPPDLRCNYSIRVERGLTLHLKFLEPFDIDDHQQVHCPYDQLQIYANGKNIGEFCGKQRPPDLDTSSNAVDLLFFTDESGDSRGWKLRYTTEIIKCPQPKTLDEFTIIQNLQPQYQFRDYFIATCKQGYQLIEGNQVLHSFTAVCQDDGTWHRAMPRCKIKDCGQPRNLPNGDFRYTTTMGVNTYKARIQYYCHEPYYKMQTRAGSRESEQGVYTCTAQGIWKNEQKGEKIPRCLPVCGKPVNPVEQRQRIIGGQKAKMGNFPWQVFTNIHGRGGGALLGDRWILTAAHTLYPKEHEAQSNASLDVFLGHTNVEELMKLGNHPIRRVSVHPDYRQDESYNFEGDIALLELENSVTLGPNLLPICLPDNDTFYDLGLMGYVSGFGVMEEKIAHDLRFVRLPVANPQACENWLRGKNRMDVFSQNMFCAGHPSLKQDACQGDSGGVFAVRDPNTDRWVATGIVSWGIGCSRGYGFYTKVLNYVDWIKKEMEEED
T1 sequence (P09871 16-688 partner): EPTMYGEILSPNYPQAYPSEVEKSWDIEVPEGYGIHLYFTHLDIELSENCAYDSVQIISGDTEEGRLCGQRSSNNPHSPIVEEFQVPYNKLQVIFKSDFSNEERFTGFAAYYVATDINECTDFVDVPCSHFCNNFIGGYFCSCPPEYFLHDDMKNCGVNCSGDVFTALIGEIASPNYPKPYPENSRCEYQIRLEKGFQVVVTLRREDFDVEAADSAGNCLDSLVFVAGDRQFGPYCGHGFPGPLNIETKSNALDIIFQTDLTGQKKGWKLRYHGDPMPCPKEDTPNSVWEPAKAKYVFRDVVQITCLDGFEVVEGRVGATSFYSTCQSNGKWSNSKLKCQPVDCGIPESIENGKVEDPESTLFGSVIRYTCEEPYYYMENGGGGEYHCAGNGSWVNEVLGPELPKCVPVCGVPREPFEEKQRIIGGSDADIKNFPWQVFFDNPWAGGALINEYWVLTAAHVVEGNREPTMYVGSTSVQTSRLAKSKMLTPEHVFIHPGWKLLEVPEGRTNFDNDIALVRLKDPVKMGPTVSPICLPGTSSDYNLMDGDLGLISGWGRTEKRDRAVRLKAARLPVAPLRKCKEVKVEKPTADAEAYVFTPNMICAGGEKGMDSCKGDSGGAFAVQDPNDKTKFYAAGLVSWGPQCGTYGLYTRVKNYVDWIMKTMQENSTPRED
The test can be described thus: ELISA for complement activation: C1q recruitment from human serum by immobilised peptide. The format is binding. The following applies: for EC50: 1% human serum in RPMI, four-parameter fit. On the procedure:
Maxisorb Nunc Immunoplates (Thermofisher Scientific, Massachusetts, USA) were coated with streptavidin (Thermofisher Scientific) at 10 μg mL^−1 in 0.1 M Na2CO3, 0.1 M NaHCO3 (coating buffer), pH 9.6 at 50 μL per well and allowed to incubate either at room temperature overnight, or 37 °C for 1 hour. Plates were washed with PBS with 0.05% tween-20 three times. For each following step, samples were incubated at 37 °C for 1 hour and subsequently washed with the PBS-T solution, we denote this as incubation and wash in the latter parts of the text. After streptavidin binding, wells were blocked with 100 μL of 0.1 M spermidine (Thermofisher Scientific) in distilled water incubated and washed. Then peptides were incubated in 50 μL PBS (as with all the following steps) with 0.05% Tween-20 (PBS-T) to create a peptide presenting surface and incubated and washed. In all activation assays, peptides are modified with a biotin to achieve binding to streptavidin. Note that in certain instances the peptides are initially modified with an azide. In such conditions a biotin-PEG4-DBCO (Jena Bioscience GmbH, Germany) was co-incubated with the peptides at 25 mol% excess of biotin linker to create a biotin modified peptide. This conjugation reaction took place in the plate. Hereafter the wells were incubated with 1% normal human serum (NHS) (Complement Technology, Inc., Texas, USA) in RPMI medium (Roswell Park Memorial Institute 1640 medium), then incubated and washed. Following these steps, complement components C1q or C5b-9 were detected. Primary Rabbit anti-C1q or Mouse anti C5b-9 (Dako, Denmark) was added to PBS, 0.05% Tween-20, 0.1% BSA (PBS-BT) in 1 : 2000 and 1 : 333 dilution, respectively, then incubated and washed. Next, goat anti-rabbit and anti-mouse antibodies (Dako, Denmark) modified with horseradish peroxidase (HRP) were diluted 1 : 5000 in PBS-T and added to the plates, then incubated and washed. To detect the HRP on the secondary antibody 2.5 mg mL^−1 ABTS (2′-azino-bis(3-ethylbenzothiazoline-6-sulfonic acid)) was added in citric acid buffer (0.15 M, pH 4.2) (ABTS buffer) containing 0.15 (v/v%) H2O2 was used and samples were incubated at room temperature for 30 minutes. Absorption measurements at 415 nm were performed on a CLARIOstar microplate reader (BMG Labtech, Offenburg, Germany).
For orientation: An ELISA detects its analyte on a solid surface through an enzyme-linked reagent.

Test [1] relates to C1q binding to pooled IgG. The test can be described thus: Competition ELISA on pooled human IgG, C1q detected. The following applies: peptide incubated with 1% human serum, pooled IgG-coated plate, two technical replicates. Here is the method:
(§1) Materials, including buffers and blocking agent, were the same as for the activation assay, unless stated otherwise. Incubation and wash steps between added new components was kept identical to the section “Enzyme-linked immunosorbent assay (ELISA) for complement activation” above. To determine the competition with pooled human IgG (Sigma-Aldrich, USA), Maxisorb plates were coated with 10 μg mL^−1 of IgG pooled from human serum, incubated, washed and blocked with spermidine. Peptides were incubated with 1% normal human serum (pooled, Complement Technology) for at least 30 minutes before adding to the IgG coated plates. DMSO controls and no serum controls were added. Human serum with and without peptides was added to the plates and subsequent complement inhibition was determined by detecting the presence of C1q or C5b-9. Data shown in the graphs is normalized to the maximum signal of the DMSO control and the minimal signal of the no serum control. Absorption measurements at 415 were performed on a CLARIOstar microplate reader (BMG Labtech, Offenburg, Germany).

Test [2] relates to C5b-9 deposition by pooled IgG. The test can be described thus: Competition ELISA on pooled human IgG, C5b-9 detected. The format is biochemical. On the procedure:
as §1

Regarding `CC[C@H](C)[C@@H]1NC(=O)[C@H](Cc2ccccc2)NC(=O)[C@H](CCC(N)=O)NC(=O)[C@H](CC(C)C)NC(=O)[C@H]([C@@H](C)O)NC(=O)[C@H](Cc2ccccc2)NC(=O)[C@@H]2CCCN2C(=O)[C@H](CC(=O)O)NC(=O)[C@@H]2CCCN2C(=O)[C@H](Cc2ccc(O)cc2)NC(=O)[C@H](Cc2ccccc2)NC(=O)[C@H]([C@@H](C)O)NC(=O)[C@H](C(C)C)NC(=O)[C@H]([C@@H](C)O)NC(=O)[C@H](Cc2ccc(O)cc2)NC(=O)CSC[C@@H](C(=O)NCC(=O)N[C@@H](CO)C(=O)N[C@@H](CCCCN=[N+]=[N-])C(=O)NCC(=O)O)NC(=O)[C@H](C)NC1=O` [cL3-Az] ({CH2CO}-YTVTFYPDPFTLQFIACGS[Lys(N3)]G-OH; thioether N-17), at C1q (cL3-Az conjugated to biotin-DBCO linker on streptavidin plate, 1 hour 37 °C, single technical replicate, CI 5.2-7.4, R2 0.99, read-out: EC50 of C1q recruitment, Fig. S4), the EC50 is 6.2 µM. Further, the “EC50 of C1 recruitment compared with the biotinylated variant” value at C1q (cL3-Az via biotin-DBCO linker on streptavidin plate, 1% human serum) is recorded as “comparable to the biotinylated variant”.
For `CC[C@H](C)[C@@H]1NC(=O)[C@H](Cc2ccccc2)NC(=O)[C@H](CCC(N)=O)NC(=O)[C@H](CC(C)C)NC(=O)[C@H]([C@@H](C)O)NC(=O)[C@H](Cc2ccccc2)NC(=O)[C@@H]2CCCN2C(=O)[C@H](CC(=O)O)NC(=O)[C@@H]2CCCN2C(=O)[C@H](Cc2ccc(O)cc2)NC(=O)[C@H](Cc2ccccc2)NC(=O)[C@H]([C@@H](C)O)NC(=O)[C@H](C(C)C)NC(=O)[C@H]([C@@H](C)O)NC(=O)[C@H](Cc2ccc(O)cc2)NC(=O)CSC[C@@H](C(=O)NCC(=O)N[C@@H](CO)C(=O)N[C@@H](CCCCNC(=O)CCCC[C@@H]2SC[C@@H]3NC(=O)N[C@@H]32)C(=O)NCC(=O)O)NC(=O)[C@H](C)NC1=O` [cL3-Bt] ({CH2CO}-YTVTFYPDPFTLQFIACGSK(Biotin)G-OH; thioether N-17), the EC50 on C1q (cL3-Bt titrated on streptavidin plate, technical duplicate on one plate (data of Fig. 3a), CI ND, R2 0.99, read-out: EC50 of C1q recruitment, Fig. S2 graph on the right) worked out at 6.2 µM; at C1q (cL3-Bt titrated on streptavidin plate, technical duplicate on one plate, CI 7.4-9.1, R2 0.99, read-out: EC50 of C1q recruitment, Fig. S2 graph in the middle), 8.2 µM; on C1q (cL3-Bt titrated on streptavidin plate, technical duplicate on one plate, CI ND, R2 0.98, read-out: EC50 of C1q recruitment, Fig. S2 graph on the left), 2.68 µM.
For `CC[C@H](C)[C@@H]1NC(=O)[C@H](Cc2ccccc2)NC(=O)[C@H](CCC(N)=O)NC(=O)[C@H](CC(C)C)NC(=O)[C@H]([C@@H](C)O)NC(=O)[C@H](Cc2ccccc2)NC(=O)[C@@H]2CCCN2C(=O)[C@H](CC(=O)O)NC(=O)[C@@H]2CCCN2C(=O)[C@H](Cc2ccc(O)cc2)NC(=O)[C@H](Cc2ccccc2)NC(=O)[C@H]([C@@H](C)O)NC(=O)[C@H](C(C)C)NC(=O)[C@H]([C@@H](C)O)NC(=O)[C@@H](Cc2ccc(O)cc2)NC(=O)CSC[C@@H](C(=O)NCC(=O)N[C@@H](CO)C(=O)N[C@@H](CCCCNC(=O)CCCC[C@@H]2SC[C@@H]3NC(=O)N[C@@H]32)C(=O)NCC(=O)O)NC(=O)[C@H](C)NC1=O` [inv-cL3] ({CH2CO}-[dY]TVTFYPDPFTLQFIACGSK(Biotin)G-OH; thioether N-17; C-terminus assumed), the “Inhibition of C1q binding to pooled IgG” value in test [1] is “minor inhibition of C1q binding to pooled IgG at high concentrations”. Besides, the IC50 in test [2] (data of Fig. 6b, four-parameter fit, CI 1.01-2.13, R2 0.94, read-out: IC50, competition with IgG, Fig. S18 fit) was 1.5 µM. The “Inhibition of C5b-9 deposition by pooled IgG (qualitative, rank)” value in test [2] (peptide incubated with 1% human serum, pooled IgG-coated plate, two technical replicates) is listed as “significantly worse than full-length cL3”.

The record behind these values is paper PMC11289891, “Selection and characterization of a peptide-based complement modulator targeting C1 of the innate immune system” (RSC Chemical Biology, 2024).
